According to patent publication US5041436A, “1-arylsulphonyl-2-piperidinone derivatives, process and intermediates for the preparation thereof, their application as antispasmodics and compositions containing them” (Roussel Uclaf, priority 1989, dated 1991):
Where two headings read alike, the source gives them in different places.

How the values were obtained:
Muscarinic receptor 1 = biological target: T1, Muscarinic receptor 1 (Rattus norvegicus, UniProt P08482); test: Binding to muscarinic receptor 1 ([^3 H]pirenzepine), rat cortex; conditions: for IC50: 0.25 nM [^3 H]pirenzepine, 60 minutes at 25° C., pH 7.4, rat cortex, read-out: Affinity for M1 muscarinic receptors, [^3 H]pirenzepine, IC50; for affinity for the muscarinic receptor (in words): summary of Table 1
T1 construct: cortices removed from the brains of male rats; from tissue; host or cells: rat brain cortex homogenate
T1 sequence (P08482 1-460): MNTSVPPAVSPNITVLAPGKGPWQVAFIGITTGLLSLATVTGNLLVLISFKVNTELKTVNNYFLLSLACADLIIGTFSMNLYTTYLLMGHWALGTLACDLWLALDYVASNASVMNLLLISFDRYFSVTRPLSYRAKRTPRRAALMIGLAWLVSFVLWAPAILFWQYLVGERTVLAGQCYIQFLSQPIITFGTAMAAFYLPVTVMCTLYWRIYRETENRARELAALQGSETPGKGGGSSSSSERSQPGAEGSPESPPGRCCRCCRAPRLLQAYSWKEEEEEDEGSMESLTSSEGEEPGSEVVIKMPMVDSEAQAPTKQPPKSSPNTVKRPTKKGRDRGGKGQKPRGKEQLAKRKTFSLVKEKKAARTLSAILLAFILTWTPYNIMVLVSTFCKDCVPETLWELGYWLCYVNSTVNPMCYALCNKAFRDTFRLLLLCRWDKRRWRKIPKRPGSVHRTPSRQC
Description: (§1) 1) Binding to different brain receptors.
Preparation of this is carried out from cortices removed from the brains of male rats weighing 150 to 200 g (Iffa Credo), ground in a Polytron in a 10 mM Na/K buffer pH 7.4. After incubation (0.5 ml aliquots of homogenate) for 60 minutes at 25° C. in the presence of 0.25 nM [^3 H]pirenzepine, either alone, or with the test product, or with an excess of 10^-5 M pirenzepine (to determine the non-specifically bound radioactivity), the incubates are cooled and filtered.
The filtration is performed on Whatman GF/C filters prewashed in a 0.05% strength solution of polyethylenimine. The filters are rinsed with 3×5 ml of 10 mM Na/K phosphate buffer pH 7.4 and the measurements are then performed by liquid scintillation.
(§2) The results are expressed as an IC50 (concentration needed to inhibit by 50% the specifically bound radioactivity).

Muscarinic receptor 2 = test: Binding to muscarinic receptor 2 ([^3 H]quinuclidinyl benzylate), rat brain; conditions: 0.3 nM [^3 H]quinuclidinyl benzylate, 60 minutes at 25° C., pH 7.5, rat brain; read-out: Affinity for M2 muscarinic receptors, [^3 H]quinuclidinyl benzylate, IC50
Description: as §1
The preparation is performed from brains of male rats weighing 150 to 200 g (Iffa Credo).
The brains are ground (Teflon-glass) in 0.32M sucrose solution. The homogenate is centrifuged for 10 minutes at 1,000 g (0°-4° C.)
The supernatant obtained is collected and centrifuged at 30,000 g for 15 minutes (0°-4° C.).
The regulus is resuspended in 50 mM Tris buffer pH 7.5 and the new homogenate is centrifuged again at 30,000 g for 15 minutes (0°-4° C.).
After removal of the supernatant, the regulus may be used immediately or stored for up to 1 month at -30° C.
For an experiment, the regulus are first thawed, if necessary, at room temperature and resuspended using a Dounce in 50 mM Tris buffer pH 7.5. 2 ml aliquots are incubated for 60 minutes at 25° C. in the presence of 0.3 nM [^3 H]quinuclidinyl benzylate, either alone, or with the test product, or with 10^-5 M benzatropine to determine the non-specifically bound radioactivity.
At the end of the incubation period, the incubate tubes are cooled to 4° C. and filtered rapidly on Whatman GF/C filters. The filters are rinsed with 3×5 ml of […] Tris buffer pH 7.5 and the measurements are then performed by liquid scintillation (Henry I. Yamamura, Solomon H. Snyder, Proc. Nat. Acad. Sc. (1974) 71, No. 5, 1725-1729).
as §2

dopamine receptors = test: Binding to other brain receptors: dopamine; conditions: negligible affinity
Description: as §1

histamine receptors = test: Binding to other brain receptors: histamine; conditions: negligible affinity
Description: as §1

[1] = biological target: serotonin 5-HT1 receptors; test: Binding to other brain receptors: serotonin 5-HT1; conditions: negligible affinity
Description: as §1

[2] = biological target: T2, serotonin 5-HT2 receptors (Homo sapiens, UniProt P28223); test: Binding to other brain receptors: serotonin 5-HT2; conditions: negligible affinity
T2 construct: from tissue
T2 sequence (P28223 whole entry): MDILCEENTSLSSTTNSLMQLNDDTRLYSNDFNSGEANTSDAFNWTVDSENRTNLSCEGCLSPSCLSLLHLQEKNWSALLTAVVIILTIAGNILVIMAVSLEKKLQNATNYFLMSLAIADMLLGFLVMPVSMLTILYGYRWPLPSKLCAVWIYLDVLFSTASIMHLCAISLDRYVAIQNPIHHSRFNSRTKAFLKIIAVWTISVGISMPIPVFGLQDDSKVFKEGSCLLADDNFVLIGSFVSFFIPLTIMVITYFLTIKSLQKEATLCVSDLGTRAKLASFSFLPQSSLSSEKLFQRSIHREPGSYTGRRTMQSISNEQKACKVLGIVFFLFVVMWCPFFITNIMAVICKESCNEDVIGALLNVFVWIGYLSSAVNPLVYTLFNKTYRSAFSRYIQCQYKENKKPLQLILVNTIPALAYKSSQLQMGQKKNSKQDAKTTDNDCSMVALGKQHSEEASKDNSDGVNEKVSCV
Description: as §1

[3] = biological target: benzodiazepines receptors; test: Binding to other brain receptors: benzodiazepines; conditions: negligible affinity
Description: as §1

GABA receptors = test: Binding to other brain receptors: GABA; conditions: negligible affinity
Description: as §1

adrenoreceptors alpha1 = test: Binding to other brain receptors: adrenoreceptor alpha1; conditions: negligible affinity
Description: as §1

adrenoreceptors alpha2 = test: Binding to other brain receptors: adrenoreceptor alpha2; conditions: negligible affinity
Description: as §1

adrenoreceptors beta1 = biological target: T3, adrenoreceptors beta1 (Homo sapiens, UniProt P08588); test: Binding to other brain receptors: adrenoreceptor beta1; conditions: negligible affinity
T3 construct: from tissue
T3 sequence (P08588 whole entry): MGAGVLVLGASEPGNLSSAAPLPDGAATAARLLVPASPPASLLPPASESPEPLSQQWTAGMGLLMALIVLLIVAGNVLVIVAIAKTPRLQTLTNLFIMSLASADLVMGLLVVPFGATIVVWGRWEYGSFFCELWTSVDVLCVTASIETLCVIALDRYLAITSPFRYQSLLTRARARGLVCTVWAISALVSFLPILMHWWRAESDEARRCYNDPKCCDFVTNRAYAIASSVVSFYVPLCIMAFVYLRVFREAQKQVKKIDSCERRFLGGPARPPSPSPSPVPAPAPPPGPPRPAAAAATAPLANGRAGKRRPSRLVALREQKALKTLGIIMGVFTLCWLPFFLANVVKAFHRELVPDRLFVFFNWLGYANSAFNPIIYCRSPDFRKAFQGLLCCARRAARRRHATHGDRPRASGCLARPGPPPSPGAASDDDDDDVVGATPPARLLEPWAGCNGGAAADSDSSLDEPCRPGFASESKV
Description: as §1

adrenoreceptors beta2 = biological target: T4, adrenoreceptors beta2 (Homo sapiens, UniProt P07550); test: Binding to other brain receptors: adrenoreceptor beta2; conditions: negligible affinity
T4 construct: from tissue
T4 sequence (P07550 whole entry): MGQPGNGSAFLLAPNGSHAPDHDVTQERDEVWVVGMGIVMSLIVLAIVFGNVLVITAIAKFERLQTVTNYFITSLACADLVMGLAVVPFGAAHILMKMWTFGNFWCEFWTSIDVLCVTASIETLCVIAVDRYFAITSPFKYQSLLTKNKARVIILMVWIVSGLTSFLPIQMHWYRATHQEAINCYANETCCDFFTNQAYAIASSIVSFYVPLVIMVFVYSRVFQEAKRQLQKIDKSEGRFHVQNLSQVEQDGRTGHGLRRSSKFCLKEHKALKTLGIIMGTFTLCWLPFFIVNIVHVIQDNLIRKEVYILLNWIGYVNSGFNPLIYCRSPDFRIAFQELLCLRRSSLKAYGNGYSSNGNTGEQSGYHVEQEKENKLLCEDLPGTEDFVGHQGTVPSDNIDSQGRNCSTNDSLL
Description: as §1

opiate receptors mu = biological target: T5, opiate receptors mu (Homo sapiens, UniProt P35372); test: Binding to other brain receptors: opiate mu; conditions: negligible affinity
T5 construct: from tissue
T5 sequence (P35372 whole entry): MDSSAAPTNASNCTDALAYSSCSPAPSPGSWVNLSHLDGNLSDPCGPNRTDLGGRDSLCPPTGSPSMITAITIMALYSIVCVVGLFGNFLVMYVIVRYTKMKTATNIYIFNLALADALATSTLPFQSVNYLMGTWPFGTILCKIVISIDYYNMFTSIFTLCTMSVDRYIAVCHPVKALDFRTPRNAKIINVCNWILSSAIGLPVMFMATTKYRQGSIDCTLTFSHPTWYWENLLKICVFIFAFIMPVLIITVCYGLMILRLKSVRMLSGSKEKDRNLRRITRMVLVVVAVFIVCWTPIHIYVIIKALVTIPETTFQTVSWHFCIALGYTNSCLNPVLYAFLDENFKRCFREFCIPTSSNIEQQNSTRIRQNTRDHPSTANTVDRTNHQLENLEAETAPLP
Description: as §1

opiate receptors kappa = biological target: T6, opiate receptors kappa (Homo sapiens, UniProt P41145); test: Binding to other brain receptors: opiate kappa; conditions: negligible affinity
T6 construct: from tissue
T6 sequence (P41145 whole entry): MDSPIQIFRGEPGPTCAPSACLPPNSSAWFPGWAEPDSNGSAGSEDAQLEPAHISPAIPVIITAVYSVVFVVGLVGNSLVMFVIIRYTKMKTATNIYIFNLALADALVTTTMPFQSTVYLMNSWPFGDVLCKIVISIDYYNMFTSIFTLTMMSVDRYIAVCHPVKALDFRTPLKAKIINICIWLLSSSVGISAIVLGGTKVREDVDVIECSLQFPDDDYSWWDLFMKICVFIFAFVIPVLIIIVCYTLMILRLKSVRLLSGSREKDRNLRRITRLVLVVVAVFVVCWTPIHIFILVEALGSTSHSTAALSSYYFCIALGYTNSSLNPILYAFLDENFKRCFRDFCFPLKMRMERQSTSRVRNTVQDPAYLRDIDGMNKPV
Description: as §1

[4] = tested on: isolated guinea pig ileum, contractions induced by acetyl choline; test: Antagonist action on contractions induced by acetyl choline, isolated guinea pig ileum; conditions: acetyl choline 1×10^-6 M; contact time one minute; 37° C.; read-out: Antagonist to different agents (IC50), ACh
Description: (§3) The interaction of the compounds with different receptors was assessed on isolated guinea pig ileum according to the following method.
(§4) Guinea pig ileum segments measuring 2.5-3 cm were washed and immediately suspended in a bath containing 10 ml of Tyrode's solution at 37° C. aerated with a mixture of oxygen (95%) and carbon dioxide (5%). After a stabilization period of at least 30 minutes, the contractions were recorded, maintaining the preparation under constant tension of 1 g using a gauge connected to a polygraph. The agonist action was assessed by leaving the compound in contact with the isolated tissue for a period necessary for expressing the maximal contraction; the preparation was then washed with Tyrode's solution. The next dose was added to the bath only after the preparation had returned to its base line. As a reference product, arecoline was employed. The antagonist action was assessed on contractions induced by acetyl choline (1×10^-6 M), histamine (1×10^-5 M) and barium chloride (2×10^-4 M). Atropine, diphenhydramine and papaverine were emplohyed as reference products. The contact time before adding the agonist was one minute.
(§5) For each compound, the dose-response curves are obtained with 4 to 6 different concentrations and 3 to 5 independent tests. The agonist activity is expressed by pD2 (negative logarithm of the dose which produces 50% of maximum effect). The antagonist activity is expressed by IC50 (concentration inhibiting 50% of the maximal response).

[5] = tested on: isolated guinea pig ileum, contractions induced by histamine; test: Antagonist action on contractions induced by histamine, isolated guinea pig ileum; conditions: histamine 1×10^-5 M; contact time one minute; 37° C.; read-out: Antagonist to different agents (IC50), Histam.
Description: as §3
as §4, with “Atropine, diphenhydramine and papaverine were emplohyed as reference products.” left out
as §5

[6] = tested on: isolated guinea pig ileum, contractions induced by barium chloride; test: Antagonist action on contractions induced by barium chloride, isolated guinea pig ileum; conditions: barium chloride 2×10^-4 M; contact time one minute; 37° C.; read-out: Antagonist to different agents (IC50), BaCl2
Description: as §3, §4, §5

[7] = tested on: isolated guinea pig ileum; test: Agonist action on isolated guinea pig ileum; conditions: negative logarithm of the dose which produces 50% of maximum effect
Description: as §3, §4, §5

[8] = tested on: cholinomimetic effects induced by carbachol; test: In vivo anticholinergic action: inhibition of cholinomimetic effects induced by carbachol in mice; parameters: species or system CD1 male mice; conditions: Mus musculus, ip; for ED (1 degree C): rectal temperature, read-out: Body temperature: dose increasing by 1° C. the hypothermic effect induced by the cholinergic agent
Description: The anticholinergic activity of the compounds was determined by assessing the capacity to inhibit the cholinomimetic effects induced by carbachol. Atropine sulphate was employed as a reference product.
CD1 male mice weighing 25 to 30 g were used. They were distributed in groups of 6 animals and treated intraperitoneally with scalar doses of the products or 0.25% Methocel for the controls. 12 animals were used for each dose. 30 minutes after administration of the compounds, the mice were injected subcutaneously with 1 mg/kg of carbachol dissolved in physiological saline.
Each animal was examined 30 minutes after the injection of carbachol to assess the presence of diarrhoea, salivation and eye watering; in addition, the body temperature was measured by means of a thermocouple inserted 1.5 cm into the rectum.
For each compound, we have determined and recorded in the following table the dose capable of inhibiting the appearance of the carbachol-induced cholinometric symptoms in 50% of the animals, and of increasing by 1° C. the hypothermic effect induced by the cholinergic agent.

[9] = mice, i.p. 30 minutes before carbachol 1 mg/kg s.c., read-out: Dose inhibiting carbachol-induced diarrhoea in 50% of the animals
[10] = mice, i.p. 30 minutes before carbachol 1 mg/kg s.c., read-out: Dose inhibiting carbachol-induced eye watering in 50% of the animals
[11] = mice, i.p. 30 minutes before carbachol 1 mg/kg s.c., read-out: Dose inhibiting carbachol-induced salivation in 50% of the animals
[12] = mice, i.p. 30 minutes before carbachol 1 mg/kg s.c.

SMILES | IC50 (Muscarinic receptor 1) [µM] | affinity for the muscarinic receptor (in words) (Muscarinic receptor 1) | IC50 (Muscarinic receptor 2) [µM] | IC50 (dopamine receptors) [µM] | IC50 (histamine receptors) [µM] | IC50 [1] [µM] | IC50 [2] [µM] | IC50 [3] [µM] | IC50 (GABA receptors) [µM] | IC50 (adrenoreceptors alpha1) [µM] | IC50 (adrenoreceptors alpha2) [µM] | IC50 (adrenoreceptors beta1) [µM] | IC50 (adrenoreceptors beta2) [µM] | IC50 (opiate receptors mu) [µM] | IC50 (opiate receptors kappa) [µM] | IC50 [4] [µM] | IC50 [5] [µM] | IC50 [6] [µM] | Agonist action pD2 [7] | ED50 [8, 9] [mg/kg] | further results
O=C1CCCCN1S(=O)(=O)c1ccc(N2CCCCC2)cc1 [Example 4, 1-[4-(1-Piperidinyl)benzenesulphonyl] -2-piperidinone] | 0.128 | noteworthy advantageous affinity for the muscarinic receptor, and mainly for the M1 type receptor | 2.24 | 5 to 10 | 5 to 10 | 5 to 10 | 5 to 10 | 5 to 10 | 5 to 10 | 5 to 10 | 5 to 10 | 5 to 10 | 5 to 10 | 5 to 10 | 5 to 10 | 1.5 | > 10 | > 10 | < 5 | 6 | ED50 [8, 10]: > 50 mg/kg; ED50 [8, 11]: > 50 mg/kg; ED (1 degree C) [8, 12]: > 50 mg/kg
CCN(CC)c1ccc(S(=O)(=O)N2CCCCC2=O)cc1 [Example 2, 1-[4-(Diethylamino)benzenesulphonyl]-2-piperidinone] | 0.314 | noteworthy advantageous affinity for the muscarinic receptor, and mainly for the M1 type receptor | 4.6 | 5 to 10 | 5 to 10 | 5 to 10 | 5 to 10 | 5 to 10 | 5 to 10 | 5 to 10 | 5 to 10 | 5 to 10 | 5 to 10 | 5 to 10 | 5 to 10 | 0.93 | > 10 | > 10 | < 5 | 5 | ED50 [8, 10]: > 50 mg/kg; ED50 [8, 11]: > 50 mg/kg; ED (1 degree C) [8, 12]: > 50 mg/kg
CN1[C@@H]2CC[C@H]1C[C@@H](OC(=O)C(CO)c1ccccc1)C2 (some centres unmarked) [Atropine, reference compound] |  |  |  |  |  |  |  |  |  |  |  |  |  |  |  | 0.0095 |  |  |  |  | ED50 ([8]; read-out: Dose inhibiting carbachol-induced diarrhoea in 50% of the animals): 0.04 mg/kg; ED50 ([8]; read-out: Dose inhibiting carbachol-induced eye watering in 50% of the animals): 0.05 mg/kg; ED50 ([8]; read-out: Dose inhibiting carbachol-induced salivation in 50% of the animals): 0.06 mg/kg
O=C1CCCCN1S(=O)(=O)c1ccc(N2CCCCCC2)cc1 [Example 5, 1-[4-(1-Hexahydroazepinyl)benzenesulphonyl]-2-piperidinone] | 0.049 | noteworthy advantageous affinity for the muscarinic receptor, and mainly for the M1 type receptor | 0.66 | 5 to 10 | 5 to 10 | 5 to 10 | 5 to 10 | 5 to 10 | 5 to 10 | 5 to 10 | 5 to 10 | 5 to 10 | 5 to 10 | 5 to 10 | 5 to 10 | 0.27 | > 10 | > 10 | < 5 | 2 | ED50 [8, 10]: > 50 mg/kg; ED (1 degree C) [8, 12]: 50 mg/kg
COC(=O)C1=CCCN(C)C1 [Arecoline, arecoline, reference compound] |  |  |  |  |  |  |  |  |  |  |  |  |  |  |  |  |  |  | 6.68 |  | 
COc1ccc(Cc2nccc3cc(OC)c(OC)cc23)cc1OC [Papaverine, papaverine, reference compound] |  |  |  |  |  |  |  |  |  |  |  |  |  |  |  |  |  | 45 |  |  | 
